17 test systems from the supplement of paper PMC10331698 can be followed below.

Experiment in all cases: level (log10 ratio to DMSO vehicle control); higher = higher biomarker level / cell amount than vehicle control
Common to all, as to settings: in DMSO

Compound in one assay: O=C(O)C(F)(F)C(F)(F)C(F)(F)C(=O)O [Hexafluoroglutaric acid]
The protocol: (§1)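 BioMAP Diversity Plus panel of 12 human primary cell co-culture systems (3C, 4H, LPS, SAg, BT, BF4T, BE3C, CASM3C, HDF3CGF, KF3CT, MyoF, Mphg). Compounds were added 1 h before stimulation and left for 24 h (MyoF 48 h; BT 72 h for soluble read-outs or 6 d for IgG). Biomarkers were read by ELISA, cytotoxicity by SRB, PBMC viability and proliferation by Alamar Blue. Each well value was divided by the mean of 8 DMSO control wells on the same plate and log10 transformed; duplicate blinded samples were tested at 4 concentrations.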

Compound in assay [1]: O=S(=O)(O)C(F)(F)C(F)(F)C(F)(F)C(F)(F)F [Perfluorobutanesulfonic acid]
The protocol: as §1

Compound in assay [2]: C=C(C)C(=O)OCC(F)(F)C(F)(F)C(F)(F)C(F)(F)C(F)(F)C(F)(F)C(F)(F)F
The protocol: as §1

± gives the standard deviation of the averaged measurements.

Take LPS:CD142/Tissue Factor: the “level (log10)” value with Hexafluoroglutaric acid (6700 nM) was 0.0325 ± 0.08; in the assay with Hexafluoroglutaric acid (20000 nM), -0.0085 ± 0.077; in the assay with Hexafluoroglutaric acid (60000 nM), -0.0285 ± 0.081; in assay [1] (6700 nM), 0.016 ± 0.038; in assay [1] (20000 nM), -0.0155 ± 0.039; in assay [1] (60000 nM), -0.0175 ± 0.016. For the same test system, the results for the “level (log10)” value in assay [2] (6700 nM) and in assay [2] (20000 nM) were -0.0155 ± 0.032 and -0.0245 ± 0.087, respectively.

For LPS:SRB, the “level (log10)” value with Hexafluoroglutaric acid (6700 nM) was -0.0025 ± 0.011; with Hexafluoroglutaric acid (20000 nM) it was -0.0065 ± 0.016; with Hexafluoroglutaric acid (60000 nM) it was 0.01 ± 0.025; in assay [1] (6700 nM) it was 0.0065 ± 0.011; in assay [1] (20000 nM), 0.004 ± 0.0057; in assay [1] (60000 nM), 0.002 ± 0.0057. Further, the “level (log10)” value in assay [2] (6700 nM) is -0.0025 ± 0.0078; in assay [2] (20000 nM), -0.0045 ± 0.005.

For the test system BF4T:MMP-1, the “level (log10)” value was 0.0035 ± 0.013 with Hexafluoroglutaric acid (6700 nM); 0.0215 ± 0.012 with Hexafluoroglutaric acid (20000 nM); 0.018 ± 0.0099 with Hexafluoroglutaric acid (60000 nM); 0.0035 ± 0.0064 in assay [1] (6700 nM); -0.009 ± 0.013 in assay [1] (20000 nM); -0.0045 ± 0.00071 in assay [1] (60000 nM). Further, the “level (log10)” value in assay [2] (6700 nM) was -0.0075 ± 0.015; in assay [2] (20000 nM), 0.016 ± 0.011.

As to BF4T:CCL26/Eotaxin-3, the “level (log10)” value with Hexafluoroglutaric acid (6700 nM) was 0.016 ± 0.054; with Hexafluoroglutaric acid (20000 nM), 0.0055 ± 0.042; with Hexafluoroglutaric acid (60000 nM), 0.043 ± 0.011; in assay [1] (6700 nM) it was -0.057 ± 0.09; in assay [1] (20000 nM), -0.014 ± 0.035; in assay [1] (60000 nM), -0.003 ± 0.047. For the same test system, the “level (log10)” value in assay [2] (6700 nM) is 0.002 ± 0.055; in assay [2] (20000 nM) it was -0.0155 ± 0.042.

As to 3C:HLA-DR, the “level (log10)” value was 0.0225 ± 0.035 in the assay with Hexafluoroglutaric acid (6700 nM); 0.0315 ± 0.047 in the assay with Hexafluoroglutaric acid (20000 nM); 0.038 ± 0.042 with Hexafluoroglutaric acid (60000 nM); -0.0015 ± 0.015 in assay [1] (6700 nM); -0.007 ± 0.0057 in assay [1] (20000 nM); -0.006 ± 0.013 in assay [1] (60000 nM). The entries for the “level (log10)” value in assay [2] (6700 nM) and in assay [2] (20000 nM) were 0.0085 ± 0.011 and -0.0005 ± 0.019, respectively.

For SAg:CD40, the “level (log10)” value is -0.012 ± 0.0014 with Hexafluoroglutaric acid (6700 nM); -0.0225 ± 0.022 in the assay with Hexafluoroglutaric acid (20000 nM); 0.0095 ± 0.0092 in the assay with Hexafluoroglutaric acid (60000 nM); -0.0075 ± 0.0064 in assay [1] (6700 nM); -0.024 ± 0.011 in assay [1] (20000 nM); -0.0445 ± 0.036 in assay [1] (60000 nM). The “level (log10)” value in assay [2] (6700 nM) is -0.0375 ± 0.00071; in assay [2] (20000 nM), -0.0425 ± 0.011.

With SAg:CCL2/MCP-1, the “level (log10)” value is -0.028 ± 0.0071 with Hexafluoroglutaric acid (6700 nM); -0.0205 ± 0.0035 with Hexafluoroglutaric acid (20000 nM); -0.0205 ± 0.016 with Hexafluoroglutaric acid (60000 nM); -0.0225 ± 0.0092 in assay [1] (6700 nM); -0.0075 ± 0.0064 in assay [1] (20000 nM); 0.0185 ± 0.033 in assay [1] (60000 nM). The “level (log10)” value was -0.0015 ± 0.0035 in assay [2] (6700 nM) and 0.0175 ± 0.0092 in assay [2] (20000 nM).

On to 4H:CD106/VCAM-1, for which the “level (log10)” value with Hexafluoroglutaric acid (6700 nM) is -0.005 ± 0.014; with Hexafluoroglutaric acid (20000 nM) it was -0.005 ± 0.03; in the assay with Hexafluoroglutaric acid (60000 nM) it was -0.0045 ± 0.012; in assay [1] (6700 nM), -0.024 ± 0.016; in assay [1] (20000 nM), -0.029 ± 0.028; in assay [1] (60000 nM), 0.001 ± 0.033. The “level (log10)” value in assay [2] (6700 nM) was -0.0205 ± 0.00071; in assay [2] (20000 nM), 0.0005 ± 0.021.

Turning to 3C:CXCL8/IL-8, the “level (log10)” value with Hexafluoroglutaric acid (6700 nM) is -0.033 ± 0.0057; with Hexafluoroglutaric acid (20000 nM) it was -0.0185 ± 0.018; with Hexafluoroglutaric acid (60000 nM) it was 0.0015 ± 0.044; in assay [1] (6700 nM), 0.0045 ± 0.00071; in assay [1] (20000 nM), 0.008 ± 0.021; in assay [1] (60000 nM), 0.071 ± 0.04. For the same test system, the “level (log10)” value in assay [2] (6700 nM) was -0.0085 ± 0.032; in assay [2] (20000 nM) it was 0.03 ± 0.014.

For the test system BE3C:HLA-DR, the “level (log10)” value with Hexafluoroglutaric acid (6700 nM) was -0.006; with Hexafluoroglutaric acid (20000 nM), -0.017 ± 0.0014; in the assay with Hexafluoroglutaric acid (60000 nM), -0.021 ± 0.028; in assay [1] (6700 nM) it was -0.003; in assay [1] (20000 nM), 0 ± 0.0028; in assay [1] (60000 nM), 0.0035 ± 0.018. Besides, the “level (log10)” value turned out to be 0.008 ± 0.0085 in assay [2] (6700 nM) and 0.001 ± 0.013 in assay [2] (20000 nM).

Consider 4H:CD62P/P-selectin, for which the “level (log10)” value with Hexafluoroglutaric acid (6700 nM) is 0.0065 ± 0.0035; with Hexafluoroglutaric acid (20000 nM), -0.035 ± 0.0014; with Hexafluoroglutaric acid (60000 nM) it was -0.05 ± 0.064; in assay [1] (6700 nM), -0.0155 ± 0.035; in assay [1] (20000 nM) it was 0.0045 ± 0.016; in assay [1] (60000 nM), -0.0085 ± 0.015. For the same test system, the “level (log10)” value in assay [2] (6700 nM) is -0.0205 ± 0.076; in assay [2] (20000 nM), -0.0315 ± 0.063.

As to BE3C:CXCL10/IP-10, the “level (log10)” value is -0.001 ± 0.0042 in the assay with Hexafluoroglutaric acid (6700 nM); -0.0085 ± 0.00071 with Hexafluoroglutaric acid (20000 nM); 0.0015 ± 0.023 with Hexafluoroglutaric acid (60000 nM); 0.009 ± 0.038 in assay [1] (6700 nM); -0.0015 ± 0.028 in assay [1] (20000 nM); 0.0005 ± 0.018 in assay [1] (60000 nM). The “level (log10)” value in assay [2] (6700 nM) was 0.0135 ± 0.018; in assay [2] (20000 nM), -0.004 ± 0.014.

As for LPS:CD62E/E-Selectin, the “level (log10)” value was -0.003 ± 0.035 with Hexafluoroglutaric acid (6700 nM); 0.0045 ± 0.03 in the assay with Hexafluoroglutaric acid (20000 nM); 0.004 ± 0.033 with Hexafluoroglutaric acid (60000 nM); 0.007 ± 0.0071 in assay [1] (6700 nM); 0.0255 ± 0.0092 in assay [1] (20000 nM); 0.028 ± 0.023 in assay [1] (60000 nM). Besides, the results for the “level (log10)” value in assay [2] (6700 nM) and in assay [2] (20000 nM) were -0.021 ± 0.018 and 0.0025 ± 0.0035, respectively.

With BF4T:MMP-9, the “level (log10)” value in the assay with Hexafluoroglutaric acid (6700 nM) is -0.003 ± 0.0014; with Hexafluoroglutaric acid (20000 nM), -0.0135 ± 0.012; with Hexafluoroglutaric acid (60000 nM), 0.007 ± 0.0028; in assay [1] (6700 nM), -0.004 ± 0.0014; in assay [1] (20000 nM), -0.0065 ± 0.028; in assay [1] (60000 nM) it was -0.013 ± 0.02. In addition, the “level (log10)” value was determined as 0.015 ± 0.0071 in assay [2] (6700 nM) and 0.0165 ± 0.005 in assay [2] (20000 nM).

Regarding BF4T:IL-1alpha, the “level (log10)” value was -0.0065 ± 0.015 in the assay with Hexafluoroglutaric acid (6700 nM); -0.0195 ± 0.0035 in the assay with Hexafluoroglutaric acid (20000 nM); -0.0045 ± 0.033 with Hexafluoroglutaric acid (60000 nM); 0.0135 ± 0.00071 in assay [1] (6700 nM); 0.0135 ± 0.016 in assay [1] (20000 nM); 0.011 ± 0.016 in assay [1] (60000 nM). The “level (log10)” value in assay [2] (6700 nM) was -0.0175 ± 0.025; in assay [2] (20000 nM), 0.006 ± 0.0099.

On to SAg:CXCL8/IL-8, for which the “level (log10)” value was -0.011 with Hexafluoroglutaric acid (6700 nM); -0.041 ± 0.042 with Hexafluoroglutaric acid (20000 nM); 0.0285 ± 0.077 in the assay with Hexafluoroglutaric acid (60000 nM); -0.0025 ± 0.023 in assay [1] (6700 nM); -0.001 ± 0.014 in assay [1] (20000 nM); 0.049 ± 0.037 in assay [1] (60000 nM). In addition, the “level (log10)” value in assay [2] (6700 nM) is -0.024 ± 0.031; in assay [2] (20000 nM), 0.0185 ± 0.0064.

Take BT:B cell Proliferation: the “level (log10)” value in the assay with Hexafluoroglutaric acid (6700 nM) was -0.005 ± 0.0042; with Hexafluoroglutaric acid (20000 nM) it was -0.0035 ± 0.0078; in the assay with Hexafluoroglutaric acid (60000 nM), 0.011 ± 0.017; in assay [1] (6700 nM), -0.0025 ± 0.016; in assay [1] (20000 nM), 0.0085 ± 0.016; in assay [1] (60000 nM) it was 0.038 ± 0.0014. The “level (log10)” value in assay [2] (6700 nM) was -0.005 ± 0.021; in assay [2] (20000 nM), 0.0115 ± 0.0078.
